As a reminder, the half-life is how long it takes for the measured level to halve. High values mean slow loss, low ones fast loss.

The values below come from PubChem BioAssay AID1508591.

The conditions of the data set: rat; liver microsomes; pH 7.4; 15.0 min; 1.0 µM. On the technique in general: Microsomes from liver hold many membrane-bound enzymes, among them those of drug oxidation.

The structures appear in SMILES notation.

`CC[C@H](NC(=O)c1c(O)c(-c2ccccc2)nc2ccccc12)c1ccccc1` registered a half-life of more than 30 min. To `Cc1cc(-c2nnc3n2CCCCC3)c(C)n1-c1cccnc1` belongs 15 min; to `Cc1ccc(S(=O)(=O)Nc2cccnc2C(=O)Nc2nc(-c3ccccc3)cs2)cc1`, 4.2 min. In turn, `CC(C)C(=O)N1CCc2ccc(OCc3nc(C(=O)N4CCCC4)co3)cc2C1c1cccc(F)c1` (stereo unspecified) yielded a half-life of 2.43 min. The same measure for `Cc1ccc(S(=O)(=O)Nc2cnccc2C(=O)Nc2nc(-c3cccc(F)c3)cs2)cc1`: 27 min; for `COc1ccc(/C=C2/C(=O)Nc3ccccc32)cc1O`: more than 30 min; for `O=C(NCCCNc1nc(Nc2cccc(NC(=O)N3CCCC3)c2)ncc1I)c1cccs1`: 1.87 min. The same measure for `COc1ccccc1CN1CCNc2cc(Nc3ccccc3)ncc2C1`: 1.21 min; for `COc1oc(-c2cccc3ccccc23)nc1C(=O)O`: more than 30 min.

With `Clc1ccc2ncc(-c3cccc(NC4CCNCC4)n3)n2c1`, the half-life is more than 30 min. Take `Nc1nc2c(s1)C(c1c(Cl)cccc1Cl)CC(=O)N2` (stereo unspecified): the half-life was 23.8 min.

Compound `COc1cc(-c2csc(N3CCC(C(N)=O)CC3)n2)cc(OC)c1OC` had a half-life of more than 30 min.

Consider `Cc1ccnc(NC(=S)N2CCC(Nc3cccc(C(F)(F)F)c3)CC2)c1`, for which the half-life came out at 20 min. To `COc1ccc2[nH]c3c(c2c1)CCNC31CCN(S(=O)(=O)c2c(C)noc2C)CC1` belongs more than 30 min; to `O=C(NC1CC1)C1CCCN1C(=O)c1cccc(-c2ccccn2)c1` (stereo unspecified), more than 30 min; to `CC(C)(C)c1ccc(S(=O)(=O)c2cnc(SCC(=O)Nc3ccc(F)c(Cl)c3)[nH]c2=O)cc1`, 5.92 min. The same measure for `COc1cccc(CNc2ccc(S(=O)(=O)Nc3nccs3)cc2)c1N`: more than 30 min; for `O=C(NCCO)c1cccc(-c2cc(Nc3ccc(OC(F)(F)F)cc3)ncn2)c1`: more than 30 min.

In turn, `CCCc1cc(C)[nH]c(=O)c1CNC(=O)c1cc(-c2ccnc(N3CCN(C)CC3)c2)cc2c1cnn2C(C)C` gave a half-life of 27.2 min. The same measure for `Cc1ccccc1C(=O)N1CCc2cc(-n3cc(NC(=O)Cc4ccccc4)cn3)ccc21`: 11 min; for `CN1C(=O)CN=C(c2ccc[nH]2)c2cc(Cl)ccc21`: 16 min. To `Cc1ccc(-n2nc(C)c3c(-c4ccc(O)c(O)c4)c(C#N)c(N)nc32)cc1C` belongs 15 min; to `Fc1ccc(-c2ccc(Nc3nc(-c4ccncc4)nc4ccccc34)cc2F)c(Cl)c1`, 25 min; to `Cc1ccccc1C(=O)N1CCc2cc(-c3nc(NC(=O)CC4CCCCC4)sc3C)ccc21`, 11 min.

The compound `CC(C)(O)Cn1c(NC(=O)c2ccc(-c3cn[nH]c3)s2)nc2cc(CN3CCOCC3)ccc21` gave a half-life of 14 min. The same measure for `CCOc1ccc(CCNC(=O)c2cc3ncccc3n2Cc2cccc(C)c2)cc1OCC`: 1.9 min; for `Cc1cccc(-n2c(C)cc(C=C(C#N)C#N)c2C)c1`: 1.64 min; for `Fc1ccc(CNc2ncnc3onc(-c4ccc(F)cc4)c23)cc1`: 28 min.

`Cc1cc(SCC(=O)c2ccccc2)n2ncc(-c3ccccc3)c2n1` came in with a half-life of 3.77 min.

As for `O=S(=O)(c1ccccc1)N1CCN(c2nc(-c3ccc(Br)cc3)cs2)CC1`, the half-life came to 27.7 min. `CCCc1c(CC)c(=N)c2ccccc2n1C` gave a half-life of more than 30 min. To `COc1ccc(-n2c(C)cc(C3=NNC(=NC4CC4)SC3)c2C)cc1` belongs 11.8 min; to `NC(=O)C1CCN(c2ncc(-c3ccc4c(c3)OCCO4)s2)CC1`, 4.94 min. The same measure for `Cc1ccc(S(=O)(=O)Nc2cccc(C(=O)Nc3nc(-c4ccccc4)cs3)c2Cl)cc1`: 15 min; for `O=[S+]([O-])(Nc1ccc2ccccc2c1)c1ccc(NCc2ccc(Cl)cc2O)cc1`: 21 min.

Regarding `Cc1ccc(NC2=C(c3ccc(C(F)(F)F)cc3)C(=O)c3ccccc32)cc1F`, the half-life stood at 8.96 min.

As for `Cc1ccc(-c2nn(C(C)(C)C)c3ncnc(N)c23)cc1`, the half-life came to 4.87 min. To `Cc1ccnc(NC(=S)N2CC[C@@H](Nc3cccc(C(F)(F)F)c3)C2)c1` belongs 3.5 min; to `COc1ccccc1Nc1ccnc(N2CCN(C(=O)c3ccccc3Cl)CC2)n1`, 7.9 min; to `CNC(=O)c1cc(Oc2ccc(NC(=O)Nc3ccc(Cl)c(C(F)(F)F)c3)c(F)c2)ccn1`, more than 30 min. For `C=CCc1cccc(CNc2ccc(S(=O)(=O)Nc3nccs3)cc2)c1O`, the half-life was found to be 19 min.

In turn, `Cc1ccnc(NC(=S)N2CCN(c3cc(F)cc(Cl)c3)CC2)c1` showed a half-life of 21 min. The same measure for `Cc1ccc(S(=O)(=O)Nc2ccccc2C(=O)Nc2ccc(-c3ccccc3)cn2)cc1`: 4.9 min; for `CC(C)(C#N)c1ccc(N2C(=O)OCc3cnc4ccc(-c5cnc6ccccc6c5)cc4c32)cc1`: 2.84 min. To `CN(C)c1ccc(-c2csc(N3CCC(C(N)=O)CC3)n2)cc1` belongs 4.12 min; to `Cc1ccc(C)c(CN2CCC(CNC(=O)Nc3ccc(Br)cc3F)CC2)c1`, 3.58 min; to `CC(C)c1ccccc1-c1ncc(F)c(NCC2CCN(c3cnccn3)C2)n1` (stereo unspecified), 2.2 min. The same measure for `COc1ccc(C(=O)Nc2nc(-c3ccccc3)cs2)c(OC)c1`: 18 min; for `COc1ccc(C)cc1NC(=O)c1cnc(-c2ccc(F)cc2)nc1-c1ccncc1`: 5.86 min. `COc1ccc(Nc2cnc3ccc(-c4ccc(OC)c(OC)c4)nn23)cc1` came in with a half-life of 6.77 min.

Compound `Fc1ccc(-c2ccc(Nc3nc(-c4ccncc4)nc4ccccc34)cc2F)cc1` yielded a half-life of more than 30 min. The same measure for `COc1cccc(CNc2ccc(S(=O)(=O)Nc3ncc(-c4ccccc4)s3)cc2)c1O`: more than 30 min; for `Cc1ccc(S(=O)(=O)Nc2ccccc2C(=O)Nc2ncc(-c3ccccc3)s2)cc1`: 13 min. The same measure for `O=C1Nc2ccccc2/C1=C/c1cc(Cl)c(O)c(Cl)c1`: more than 30 min. `Cc1sc(NC(=O)Cc2ccc3c(c2)OCO3)nc1-c1ccc2c(c1)CCN2C(=O)C1CCCCC1` yielded a half-life of 8.6 min. The same measure for `Cc1nc2ccc(Nc3nc(-c4ccncc4)nc4ccccc34)cc2s1`: 10 min; for `O=C(Nc1nc(-c2ccccc2)cs1)c1ccccc1[N+](=O)[O-]`: 17 min. In the case of `CC(C)c1ccccc1-c1ncc(F)c(NCc2ccc(-c3ccn[nH]3)cc2)n1`, the half-life was found to be 2.8 min. The same measure for `O=C(Nc1nc(-c2ccccc2)cs1)c1ccncc1NS(=O)(=O)c1ccc(Cl)cc1`: 18.2 min.

Compound `CC(=O)NCc1ccc(-c2csc(Nc3cccc(C)c3)n2)o1` gave a half-life of more than 30 min.

Consider `O=C(Cc1c[nH]c2ncc(-c3ccc(Cl)cc3)cc12)NCc1cccnc1`, for which the half-life is 1.66 min. The same measure for `COc1cc2c(cc1Oc1cccc(N(C)C)c1)NC(=O)C21CCN(c2cnccn2)CC1`: 1.77 min; for `Cc1ccccc1C(=O)Nc1nc2c(s1)CC(C(C)(C)C)CC2` (stereo unspecified): 10.5 min. To `Fc1cccc(CN2CCNc3cc(Nc4ccccc4)ncc3C2)c1` belongs 1.14 min; to `O=C(CCCCn1c(=O)[nH]c2ccsc2c1=O)N1CCN(c2cccc(Cl)c2)CC1`, 8.06 min; to `CCCN1C(CC(C)C)=NS(=O)(=O)c2cc(NC(=O)c3ccco3)ccc21`, 9.21 min.
